Results from patent publication US12172992B2, “Pyrimidines for degrading Bruton's tyrosine kinase” (AbbVie Inc., priority 2022, dated 2024).

Key:
[1] = molecular target: BTK protein in human whole blood (Homo sapiens (Human), UniProt Q06187); assay: Btk protein in human whole blood MSD ELISA based assay (BTK degradation); format: cell-based; conditions: 6 hours, maximum BTK degradation compared to DMSO only treated samples, read-out: hWB BTK dMax (%)
Protocol: Btk protein degradation was tested using an Meso Scale Discovery-ELISA system (MSD-ELISA): (1) Test compounds were added to human whole blood; (2) human whole blood cells treated with test compounds were lysed; (3) lysed cells were treated with capture antibody, an antibody to Btk; (4) lysed cells were treated with […] to Btk; and (5) lysed cells were treated with anti-mouse antibody (tagged).
Specifically, about 80 μl of fresh human whole blood from healthy donors was transferred into each well of a 96-well V-bottom plate (Costar, Cat No. 3894). Using a TECAN™ D300e Digital Dispenser (Tecan)), 1:4 serially diluted compounds [(8 pt assay) in DMSO solution (final 0.2%) starting at 3 μM top concentration], were added in duplicate. Thereafter, plates were placed in a 37° C. incubator and incubated for 6 hours.
At the end of incubation, 80 μl of 2×CST lysis buffer (Cell Signaling Technology, Cat No. 9803), prepared from a 10× stock solution, was added per well to lyse the blood. Plates were then sealed with a plate sealer and the samples were frozen overnight at −80° C.
Total amount of BTK protein remaining in the blood samples after compound treatment was measured using MSD-ELISA. After thawing the frozen plates, blood lysates were mixed thoroughly and transferred to small spot high-bind MSD plates (Meso Scale Discovery, Cat No. L45XB-3) and coated with capturing antibody, rabbit anti-human BTK (D3H5) (Cell Signaling Technology, Cat No. 8547CF). Thereafter, primary detection antibody, mouse anti-human BTK monoclonal antibody, (BD Biosciences, Cat No. 611117) and secondary detection antibody, anti-mouse SULFO-TAG (Meso Scale Discovery, Cat No. R32AC-1) were added. The assay plates were read on an MSD S600 plate reader by the addition of 2×MSD read buffer (Meso Scale Discovery, R92TC-1). All reagent transfers, including blood lysis, was conducted using a Biomed i7 liquid handler. From the dose response curves, DC50 values were calculated by averaging data from duplicate experiments. and Curve fitting was done by non-linear regression using GraphPad Prism. The DC50 values are reported in Table 2 in the hWB BTK DC50 (nM) column The Dmax values represent the maximum amount of BTK degradation observed upon compound treatment compared to DMSO only treated samples. The dMax (%) values are reported in Table 2 in the hWB BTK dMax (%) column.

[2] = molecular target: BTK in mouse bone marrow (Mus musculus (Mouse), UniProt P35991); assay: Mouse Bone Marrow Assay (MSD ELISA of BTK degradation in bone marrow); format: in vivo; conditions: female C57BL/6J mice, single dose of Dose A, bone marrow collected after 24 hours
Protocol: Female C57BL/6J mice (Jackson Laboratories) were used for this study. Compounds or vehicle/control were prepped with EtOH; PEG-400; Phosal 53 MCT (10:30:60, v/v). Four mice were tested per compound or vehicle/control. On Day 1, mice were administered a single dose of Dose A. On Day 2 (after 24 hours), tissue (bone marrow) was collected from one hind leg per mouse.
An MSD (Meso Scale Discovery) ELISA (enzyme-linked immunosorbent assay) based assay was used to determine BTK degradation in mouse bone marrow. The following materials and equipment were used: 10% NP40 solution (nonionic polyoxyethylene surfactant, ThermoFisher, cat no. 28324); protease inhibitor mini tablet (Roche, cat no. 05 892 970 001); PhosphoSTOP™ tablet (Roche, cat no. 04 906 837 001); Pierce™ BCA Protein Assay Kit (Thermofisher, Cat No. 23225); Precellys® 2 mL lysing tube with 2.8 mm beads (VWR, cat no. 10032-756); Bertin Precellys® 24/Cryolys® cooling system; 96-well MSD streptavidin pre-coated plates (MSD, cat no. L15SA-1); MSD Blocker A (MSD, cat no. R93BA-4); capture antibody, biotinylated BTK mAb (BD Biosciences, cat no. 624008; custom order); primary detection antibody, BTK RpAb (rabbit polyclonal antibody, CST, cat no. 8547S, D3H5 clone); secondary detection antibody, anti-Rabbit-Sulfo-Tag (MSD, cat no. R32AB-1); read Buffer, 4× (MSD, cat no. R92TC-1); recombinant BTK protein (Thermofisher, cat no. PR5442A); MSD Tris Wash Buffer (10×) (MSD, cat no. R61TX-1); PBS (phosphate-buffered saline); deionized water (diH2O); Lysis Buffer [0.2% NP40 in PBS+Protease Inhibitor tablet (1 tablet/10 mL)+PhosphoSTOP tablet (1 tablet/10 mL)]; 3% MSD Blocker A [MSD Blocker A+450 mL diH2O+50 mL]; and 10×MSD Tris Wash Buffer.
Lysis buffer [(PBS+0.2% NP40+PI (protease inhibitor)+PhosphoSTOP)] was prepared and put on ice until it was fully cold. Ice cold lysis buffer […] was added to each Precellys® tube containing beads and bone marrow sample. Sample tubes were transferred into Precellys® machine and homogenized using 5000 rpm—2×20 seconds. The sample lysates were centrifuged at 14,000 rpm for 20 minutes at 4° C. after homogenizing.
The protein concentration was determined using Pierce™ BCA Protein Assay Kit following manufacturer's recommended protocol. The protein normalized working solution was prepared, using 30 μg protein per sample lysate for assay.
A 300 ng/ml working stock solution of recombinant BTK protein in lysis buffer was prepared, and the sample was serially diluted at 3-fold dilution (10-point assay, highest concentration was 300 ng/mL and lowest concentration was 0.015 ng/mL)
MSD plate coating: Coating antibody (biotinylated-BTK mAb) stock solution was prepared at 1 μg/mL in PBS buffer. 50 μL/well capture antibody (Biotinylated BTK mAb) solution was added, and the plates were shaken gently at ambient temperature for two hours. The plates were washed 3 times with 1×MSD Tris Wash Buffer in a plate washer (300 μL/well), and the plates were blocked with 3% MSD Blocker A (150 μL/well). The plates were incubated for an additional 1-2 hours at ambient temperature with gentle shaking. The plates were washed 3 times with 1×MSD wash buffer using plate washer. Bone marrow lysates (30 μg) at a final volume of 50 μL/well were added into the plates. The serially diluted standard samples were added to the same plates at a final volume of 50 μL/well. The plates were incubated overnight at 4° C. with gentle shaking.
The plates were washed three times with 1×MSD wash buffer (prepared from 10× concentration buffer) using plate washer. Primary detection antibody at 50 μL/well was added (BTK RpAb; 1:1000 dilution in 1% MSD Blocker A). The plates were incubated for two hours at ambient temperature with gentle shaking. The plates were washed three times with 1×MSD wash buffer using plate washer. Anti-Rabbit-SULFO-TAG secondary antibodies (50 μl/well) were added, 1:500 diluted in 1% MSD Blocker A, and the plates were incubated for one to two hours at ambient temperature. […]

Sequence of BTK protein in human whole blood (Q06187 whole entry): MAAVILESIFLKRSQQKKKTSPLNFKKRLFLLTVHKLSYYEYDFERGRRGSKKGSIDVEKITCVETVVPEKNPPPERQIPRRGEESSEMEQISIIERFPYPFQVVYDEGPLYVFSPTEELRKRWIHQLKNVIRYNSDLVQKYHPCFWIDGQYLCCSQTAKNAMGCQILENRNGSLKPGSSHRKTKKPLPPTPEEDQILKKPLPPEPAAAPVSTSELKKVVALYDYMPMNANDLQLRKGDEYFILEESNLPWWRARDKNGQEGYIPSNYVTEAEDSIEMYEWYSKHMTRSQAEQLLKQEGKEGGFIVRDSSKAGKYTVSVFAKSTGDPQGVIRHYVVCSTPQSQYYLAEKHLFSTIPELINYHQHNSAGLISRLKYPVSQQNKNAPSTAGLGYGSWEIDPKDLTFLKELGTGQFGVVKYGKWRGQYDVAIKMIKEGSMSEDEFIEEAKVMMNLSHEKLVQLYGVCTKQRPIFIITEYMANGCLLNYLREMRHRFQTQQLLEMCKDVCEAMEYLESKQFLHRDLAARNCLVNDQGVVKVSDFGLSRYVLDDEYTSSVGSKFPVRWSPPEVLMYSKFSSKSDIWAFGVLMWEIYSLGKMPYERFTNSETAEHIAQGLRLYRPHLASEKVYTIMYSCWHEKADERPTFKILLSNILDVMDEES
Sequence of BTK in mouse bone marrow (P35991 whole entry): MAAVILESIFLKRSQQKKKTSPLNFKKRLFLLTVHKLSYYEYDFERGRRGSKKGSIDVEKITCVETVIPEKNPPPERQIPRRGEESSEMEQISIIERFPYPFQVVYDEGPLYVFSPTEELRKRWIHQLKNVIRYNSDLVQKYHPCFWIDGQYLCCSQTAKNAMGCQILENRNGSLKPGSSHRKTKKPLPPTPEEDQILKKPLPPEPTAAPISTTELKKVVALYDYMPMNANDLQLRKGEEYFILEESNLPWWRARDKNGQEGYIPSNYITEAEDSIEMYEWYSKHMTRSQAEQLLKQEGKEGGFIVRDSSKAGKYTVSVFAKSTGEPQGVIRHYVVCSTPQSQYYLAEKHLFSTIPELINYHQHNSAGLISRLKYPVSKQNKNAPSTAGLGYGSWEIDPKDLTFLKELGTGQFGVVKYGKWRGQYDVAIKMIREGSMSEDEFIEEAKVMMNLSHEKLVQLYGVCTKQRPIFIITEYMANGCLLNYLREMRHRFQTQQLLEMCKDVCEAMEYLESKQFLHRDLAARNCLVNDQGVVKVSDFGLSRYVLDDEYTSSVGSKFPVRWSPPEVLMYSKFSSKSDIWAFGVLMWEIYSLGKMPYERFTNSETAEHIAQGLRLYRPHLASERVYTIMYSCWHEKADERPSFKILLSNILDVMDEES

| SMILES | Dmax [1] | Mouse Bone Marrow (%) (% remaining BTK, vehicle versus treated) [2] |
| --- | --- | --- |
| CC[C@H]1CN(CCc2ccc(N3CCC(=O)NC3=O)c(F)c2)CCN1c1ccc(Nc2cc(-c3ccc([C@@H](C)NC(=O)c4nc(C(C)(C)C)no4)c(C)c3)ncn2)nc1 [Example 7, 3-tert-butyl-N-[(1R)-1-{4-[6-({5-[(2S)-4-{2-[4-(2,4-dioxo-1,3-diazinan-1-yl)-3-fluorophenyl]ethyl}-2-ethylpiperazin-1-yl]pyridin-2-yl}amino)pyrimidin-4-yl]-2-methylphenyl}ethyl]-1,2,4-oxadiazole-5-carboxamide] | 99.3% | 22% |
| Cc1cc(-c2cc(Nc3ccc(N4CCN(CCc5ccc(N6CCC(=O)NC6=O)cc5)C[C@H]4C)cn3)ncn2)ccc1[C@@H](C)NC(=O)c1nc(C(C)(C)C)no1 [Example 2, 3-tert-butyl-N-[(1R)-1-{4-[6-({5-[(2R)-4-{2-[4-(2,4-dioxo-1,3-diazinan-1-yl)phenyl]ethyl}-2-methylpiperazin-1-yl]pyridin-2-yl}amino)pyrimidin-4-yl]-2-methylphenyl}ethyl]-1,2,4-oxadiazole-5-carboxamide] | 98.8% | 12% |
| CC[C@H]1CN(CCc2ccc(N3CCC(=O)NC3=O)cc2)CCN1c1ccc(Nc2cc(-c3ccc([C@@H](C)NC(=O)c4nc(C(C)(C)C)no4)c(C)c3)ncn2)nc1 [Example 6, 3-tert-butyl-N-[(1R)-1-{4-[6-({5-[(2S)-4-{2-[4-(2,4-dioxo-1,3-diazinan-1-yl)phenyl]ethyl}-2-ethylpiperazin-1-yl]pyridin-2-yl}amino)pyrimidin-4-yl]-2-methylphenyl}ethyl]-1,2,4-oxadiazole-5-carboxamide] | 99.8% | 19% |
| Cc1cc(-c2cc(Nc3ccc(N4CCN(CCc5ccc(N6CCC(=O)NC6=O)cc5)CC4(C)C)cn3)ncn2)ccc1[C@@H](C)NC(=O)c1nc(C(C)(C)C)no1 [Example 9, 3-tert-butyl-N-{(1R)-1-[4-(6-{{5-(4-{2-[4-(2,4-dioxo-1,3-diazinan-1-yl)phenyl]ethyl}-2,2-dimethylpiperazin-1-yl)pyridin-2-yl}amino}pyrimidin-4-yl)-2-methylphenyl]ethyl}-1,2,4-oxadiazole-5-carboxamide] | 99.5% | 31% |
| C[C@@H](NC(=O)c1nc(C(C)(C)C)no1)c1ccc(-c2cc(Nc3ccc(N4CCN(CCc5ccc(N6CCC(=O)NC6=O)cc5)C[C@@H]4C)cn3)ncn2)cc1C(F)(F)F [Example 16, 3-tert-butyl-N-[(1R)-1-{4-[6-({5-[(2S)-4-{2-[4-(2,4-dioxo-1,3-diazinan-1-yl)phenyl]ethyl}-2-methylpiperazin-1-yl]pyridin-2-yl}amino)pyrimidin-4-yl]-2-(trifluoromethyl)phenyl}ethyl]-1,2,4-oxadiazole-5-carboxamide] | 100% |  |
| COC[C@H]1CN(CCc2ccc(N3CCC(=O)NC3=O)cc2)CCN1c1ccc(Nc2cc(-c3ccc([C@@H](C)NC(=O)c4nc(C(C)(C)C)no4)c(C)c3)ncn2)nc1 [Example 15, 3-tert-butyl-N-[(1R)-1-{4-[6-({5-[(2R)-4-{2-[4-(2,4-dioxo-1,3-diazinan-1-yl)phenyl]ethyl}-2-(methoxymethyl)piperazin-1-yl]pyridin-2-yl}amino)pyrimidin-4-yl]-2-methylphenyl}ethyl]-1,2,4-oxadiazole-5-carboxamide] | 99.9% |  |

Next, values leading:

| Dmax [1] | Mouse Bone Marrow (%) (% remaining BTK, vehicle versus treated) [2] | SMILES |
| --- | --- | --- |
| 97.7% | 29% | Cc1c([C@@H](C)NC(=O)c2nc(C(C)(C)C)no2)ccc(-c2cc(Nc3ccc(N4CCN(CCc5ccc(N6CCC(=O)NC6=O)cc5)CC4)cn3)ncn2)c1F [Example 11, 3-tert-butyl-N-{(1R)-1-[4-(6-{[5-(4-{2-[4-(2,4-dioxo-1,3-diazinan-1-yl)phenyl]ethyl}piperazin-1-yl)pyridin-2-yl]amino}pyrimidin-4-yl)-3-fluoro-2-methylphenyl]ethyl}-1,2,4-oxadiazole-5-carboxamide] |
| 99.2% | 22% | Cc1cc(-c2cc(Nc3ccc(N4CCN(CCc5ccc(N6CCC(=O)NC6=O)cc5)CC4)cn3)ncn2)ccc1[C@@H](C)NC(=O)c1nc(C(C)(C)C)no1 [Example 3, 3-tert-butyl-N-{(1R)-1-[4-(6-{[5-(4-{2-[4-(2,4-dioxo-1,3-diazinan-1-yl)phenyl]ethyl}piperazin-1-yl)pyridin-2-yl]amino}pyrimidin-4-yl)-2-methylphenyl]ethyl}-1,2,4-oxadiazole-5-carboxamide] |
| 100% | 51% | Cc1cc(-c2cc(Nc3ccc(CCN4CCN(c5ccc(N6CCC(=O)NC6=O)cc5)CC4)cn3)ncn2)ccc1[C@@H](C)NC(=O)c1nc(C(C)(C)C)no1 [Example 19] |
| 99.6% |  | C[C@@H](NC(=O)c1nc(C(C)(C)C)no1)c1ccc(-c2cc(Nc3ccc(N4CCN(CCc5ccc(N6CCC(=O)NC6=O)cc5)C[C@@H]4C)cn3)ncn2)cc1F [Example 17, 3-tert-butyl-N-[(1R)-1-{4-[6-({5-[(2S)-4-{2-[4-(2,4-dioxo-1,3-diazinan-1-yl)phenyl]ethyl}-2-methylpiperazin-1-yl]pyridin-2-yl}amino)pyrimidin-4-yl]-2-fluorophenyl}ethyl]-1,2,4-oxadiazole-5-carboxamide] |
